{
  "source": "ChEMBL document CHEMBL5154941",
  "about": "“Structural Modifications of Nimodipine Lead to Novel PDE1 Inhibitors with Anti-pulmonary Fibrosis Effects” (J Med Chem, 2022)",
  "key": {"Rattus norvegicus [1]": {"tested_on": "Rattus norvegicus", "test": "Antifibrotic activity in bleomycin-induced Sprague-Dawley rat pulmonary fibrosis model assessed as decrease in relaxation time at 2.5 to 5 mg/kg, ip administered daily for 28 days", "type": "functional, organism-based", "conditions": "dose 2.5-5 mg/kg, time 28.0 day"}, "Rattus norvegicus [2]": {"tested_on": "Rattus norvegicus", "test": "Antifibrotic activity in bleomycin-induced Sprague-Dawley rat pulmonary fibrosis model assessed as decrease in enhanced pause at 2.5 to 5 mg/kg, ip administered daily for 28 days", "type": "functional, organism-based", "conditions": "dose 2.5-5 mg/kg, time 28.0 day"}, "[3]": {"test": "Half life in Sprague-Dawley rat at 5 mg/kg, iv", "type": "ADME, organism-based", "conditions": "in vivo"}, "Rattus norvegicus [4]": {"tested_on": "Rattus norvegicus", "test": "Antifibrotic activity in bleomycin-induced Sprague-Dawley rat pulmonary fibrosis model assessed as decrease in end-expiratory pause at 2.5 to 5 mg/kg, ip administered daily for 28 days", "type": "functional, organism-based", "conditions": "dose 2.5-5 mg/kg, time 28.0 day"}, "Rattus norvegicus [5]": {"tested_on": "Rattus norvegicus", "test": "Antifibrotic activity in bleomycin-induced Sprague-Dawley rat pulmonary fibrosis model assessed as increase in respiratory rate at 2.5 to 5 mg/kg, ip administered daily for 28 days", "type": "functional, organism-based", "conditions": "dose 2.5-5 mg/kg, time 28.0 day"}, "[6]": {"target": "3',5'-cyclic-AMP phosphodiesterase 4D (Homo sapiens, UniProt Q08499)", "test": "Inhibition of PDE4D2 (86 to 413 residues) (unknown origin) expressed in Escherichia coli BL21 [3H]-cAMP as substrate measured for 15 mins by liquid scintillation counter method"}, "[7]": {"target": "Dual specificity calcium/calmodulin-dependent 3',5'-cyclic nucleotide phosphodiesterase 1A (Homo sapiens, UniProt P54750)", "sequence (P54750 whole entry, the tested form may be a part)": "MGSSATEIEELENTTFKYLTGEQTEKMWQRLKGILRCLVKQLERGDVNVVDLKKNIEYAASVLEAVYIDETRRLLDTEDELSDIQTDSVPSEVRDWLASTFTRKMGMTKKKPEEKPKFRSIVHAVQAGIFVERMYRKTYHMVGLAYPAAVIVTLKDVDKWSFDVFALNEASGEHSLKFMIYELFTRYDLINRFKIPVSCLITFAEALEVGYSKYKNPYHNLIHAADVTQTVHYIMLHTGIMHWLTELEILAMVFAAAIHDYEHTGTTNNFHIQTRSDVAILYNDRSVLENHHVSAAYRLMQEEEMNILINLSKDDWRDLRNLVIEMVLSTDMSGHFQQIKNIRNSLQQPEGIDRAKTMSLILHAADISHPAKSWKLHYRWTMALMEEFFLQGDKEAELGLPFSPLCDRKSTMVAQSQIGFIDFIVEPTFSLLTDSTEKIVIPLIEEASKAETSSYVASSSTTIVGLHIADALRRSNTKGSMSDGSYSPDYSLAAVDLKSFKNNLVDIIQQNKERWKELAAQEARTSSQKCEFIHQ", "test": "Inhibition of PDE1A (142 to 552 residues) (unknown origin) expressed in Escherichia coli BL21 measured for 15 mins by liquid scintillation counter method"}, "[8]": {"target": "Dual specificity calcium/calmodulin-dependent 3',5'-cyclic nucleotide phosphodiesterase 1B (Homo sapiens, UniProt Q01064)", "test": "Inhibition of PDE1B (10 to 487 residues) (unknown origin) expressed in Escherichia coli BL21 using [3H]-cGMP as substrate measured for 15 mins by liquid scintillation counter method"}, "[9]": {"target": "cGMP-dependent 3',5'-cyclic phosphodiesterase (Homo sapiens, UniProt O00408)", "sequence (O00408 whole entry, the tested form may be a part)": "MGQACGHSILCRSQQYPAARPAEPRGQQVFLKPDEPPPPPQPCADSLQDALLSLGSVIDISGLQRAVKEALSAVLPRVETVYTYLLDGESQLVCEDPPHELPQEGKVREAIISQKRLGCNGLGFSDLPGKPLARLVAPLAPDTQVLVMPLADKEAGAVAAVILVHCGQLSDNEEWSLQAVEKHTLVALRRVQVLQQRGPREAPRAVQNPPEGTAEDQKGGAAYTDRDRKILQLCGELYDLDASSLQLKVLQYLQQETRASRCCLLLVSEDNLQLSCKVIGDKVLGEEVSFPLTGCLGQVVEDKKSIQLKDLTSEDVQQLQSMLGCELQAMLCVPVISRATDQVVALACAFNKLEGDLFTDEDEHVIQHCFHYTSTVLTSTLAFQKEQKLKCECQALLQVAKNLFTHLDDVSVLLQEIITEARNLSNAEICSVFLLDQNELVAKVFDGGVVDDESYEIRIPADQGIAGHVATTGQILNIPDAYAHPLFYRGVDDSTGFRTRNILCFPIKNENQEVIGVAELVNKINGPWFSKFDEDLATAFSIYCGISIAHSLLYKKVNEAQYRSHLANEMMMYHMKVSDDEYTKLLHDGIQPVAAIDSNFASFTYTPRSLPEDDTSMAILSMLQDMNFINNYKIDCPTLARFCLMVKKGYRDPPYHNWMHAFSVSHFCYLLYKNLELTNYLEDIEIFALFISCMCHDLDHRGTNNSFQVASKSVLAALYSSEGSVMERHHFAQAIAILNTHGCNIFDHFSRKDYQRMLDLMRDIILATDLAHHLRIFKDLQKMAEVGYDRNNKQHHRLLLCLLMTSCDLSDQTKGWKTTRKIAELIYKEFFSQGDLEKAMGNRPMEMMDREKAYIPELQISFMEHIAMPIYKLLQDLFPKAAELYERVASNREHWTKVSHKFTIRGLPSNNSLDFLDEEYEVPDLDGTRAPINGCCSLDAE", "test": "Inhibition of PDE2A (580 to 919 residues) (unknown origin) expressed in Escherichia coli BL21 using [3H]-cGMP as substrate measured for 15 mins by liquid scintillation counter method"}, "[10]": {"target": "cGMP-inhibited 3',5'-cyclic phosphodiesterase 3A (Homo sapiens, UniProt Q14432)", "sequence (Q14432 whole entry, the tested form may be a part)": "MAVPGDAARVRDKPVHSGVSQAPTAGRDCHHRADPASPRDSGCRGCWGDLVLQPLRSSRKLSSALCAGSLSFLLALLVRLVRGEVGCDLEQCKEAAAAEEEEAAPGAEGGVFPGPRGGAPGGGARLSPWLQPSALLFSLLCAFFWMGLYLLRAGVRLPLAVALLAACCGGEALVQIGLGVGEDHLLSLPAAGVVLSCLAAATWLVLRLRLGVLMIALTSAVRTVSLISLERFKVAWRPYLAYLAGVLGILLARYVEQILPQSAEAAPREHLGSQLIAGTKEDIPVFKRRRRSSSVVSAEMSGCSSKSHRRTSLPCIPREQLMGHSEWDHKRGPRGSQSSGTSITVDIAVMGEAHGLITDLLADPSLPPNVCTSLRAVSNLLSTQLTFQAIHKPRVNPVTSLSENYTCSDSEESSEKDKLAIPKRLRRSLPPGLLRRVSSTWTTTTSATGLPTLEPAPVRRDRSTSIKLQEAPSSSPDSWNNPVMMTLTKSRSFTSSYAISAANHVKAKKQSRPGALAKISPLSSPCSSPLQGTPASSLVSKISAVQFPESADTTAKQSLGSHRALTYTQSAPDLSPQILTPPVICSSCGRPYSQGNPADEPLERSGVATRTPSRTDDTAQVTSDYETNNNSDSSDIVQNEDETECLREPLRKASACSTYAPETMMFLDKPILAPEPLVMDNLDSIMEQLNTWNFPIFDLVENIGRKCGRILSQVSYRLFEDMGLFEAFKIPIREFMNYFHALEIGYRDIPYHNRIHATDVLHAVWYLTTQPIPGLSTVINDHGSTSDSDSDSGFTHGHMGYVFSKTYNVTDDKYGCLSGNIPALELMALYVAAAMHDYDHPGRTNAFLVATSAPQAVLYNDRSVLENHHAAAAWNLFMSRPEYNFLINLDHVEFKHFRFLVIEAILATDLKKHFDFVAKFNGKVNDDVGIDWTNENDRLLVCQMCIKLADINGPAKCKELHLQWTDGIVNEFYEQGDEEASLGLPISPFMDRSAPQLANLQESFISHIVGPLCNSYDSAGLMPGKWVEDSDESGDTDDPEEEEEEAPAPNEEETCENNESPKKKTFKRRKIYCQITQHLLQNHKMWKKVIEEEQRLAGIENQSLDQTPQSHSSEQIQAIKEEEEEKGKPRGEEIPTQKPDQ", "test": "Inhibition of PDE3A (679 to 1087 residues) (unknown origin) expressed in Escherichia coli BL21 using [3H]-cAMP as substrate measured for 15 mins by liquid scintillation counter method"}, "[11]": {"target": "3',5'-cyclic-AMP phosphodiesterase 4B (Homo sapiens, UniProt Q07343)", "sequence (Q07343 whole entry, the tested form may be a part)": "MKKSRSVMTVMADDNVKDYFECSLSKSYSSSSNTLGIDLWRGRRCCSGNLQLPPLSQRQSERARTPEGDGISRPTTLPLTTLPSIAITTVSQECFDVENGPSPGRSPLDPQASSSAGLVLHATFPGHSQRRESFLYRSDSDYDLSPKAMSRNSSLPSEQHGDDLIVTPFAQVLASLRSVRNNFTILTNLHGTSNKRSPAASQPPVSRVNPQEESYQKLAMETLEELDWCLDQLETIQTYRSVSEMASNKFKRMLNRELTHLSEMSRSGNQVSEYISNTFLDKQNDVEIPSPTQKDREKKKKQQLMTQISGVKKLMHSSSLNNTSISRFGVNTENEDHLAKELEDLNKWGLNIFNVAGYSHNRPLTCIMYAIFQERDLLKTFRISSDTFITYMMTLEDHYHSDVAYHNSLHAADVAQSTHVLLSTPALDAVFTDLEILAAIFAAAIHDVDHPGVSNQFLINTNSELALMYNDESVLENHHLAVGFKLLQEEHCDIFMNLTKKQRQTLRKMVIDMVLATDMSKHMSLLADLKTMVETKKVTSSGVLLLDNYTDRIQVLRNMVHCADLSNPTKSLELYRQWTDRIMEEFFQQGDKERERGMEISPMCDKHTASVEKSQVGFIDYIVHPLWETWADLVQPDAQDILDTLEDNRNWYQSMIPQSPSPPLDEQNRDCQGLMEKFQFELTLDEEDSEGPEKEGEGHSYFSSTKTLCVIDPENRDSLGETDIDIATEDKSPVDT", "test": "Inhibition of PDE4B2 (152 to 487 residues) (unknown origin) expressed in Escherichia coli BL21 measured for 15 mins by liquid scintillation counter method"}, "[12]": {"target": "cGMP-specific 3',5'-cyclic phosphodiesterase (Homo sapiens, UniProt O76074)", "test": "Inhibition of PDE5A1 (535 to 860 residues) (unknown origin) expressed in Escherichia coli BL21 [3H]-cGMP as substrate measured for 15 mins by liquid scintillation counter method"}, "[13]": {"target": "High affinity 3',5'-cyclic-AMP phosphodiesterase 7A (Homo sapiens, UniProt Q13946)", "test": "Inhibition of PDE7A1 (130-482 residues) (unknown origin) expressed in Escherichia coli BL21 using [3H]-cAMP as substrate measured for 15 mins by liquid scintillation counter method"}, "[14]": {"target": "High affinity cAMP-specific and IBMX-insensitive 3',5'-cyclic phosphodiesterase 8A (Homo sapiens, UniProt O60658)", "sequence (O60658 whole entry, the tested form may be a part)": "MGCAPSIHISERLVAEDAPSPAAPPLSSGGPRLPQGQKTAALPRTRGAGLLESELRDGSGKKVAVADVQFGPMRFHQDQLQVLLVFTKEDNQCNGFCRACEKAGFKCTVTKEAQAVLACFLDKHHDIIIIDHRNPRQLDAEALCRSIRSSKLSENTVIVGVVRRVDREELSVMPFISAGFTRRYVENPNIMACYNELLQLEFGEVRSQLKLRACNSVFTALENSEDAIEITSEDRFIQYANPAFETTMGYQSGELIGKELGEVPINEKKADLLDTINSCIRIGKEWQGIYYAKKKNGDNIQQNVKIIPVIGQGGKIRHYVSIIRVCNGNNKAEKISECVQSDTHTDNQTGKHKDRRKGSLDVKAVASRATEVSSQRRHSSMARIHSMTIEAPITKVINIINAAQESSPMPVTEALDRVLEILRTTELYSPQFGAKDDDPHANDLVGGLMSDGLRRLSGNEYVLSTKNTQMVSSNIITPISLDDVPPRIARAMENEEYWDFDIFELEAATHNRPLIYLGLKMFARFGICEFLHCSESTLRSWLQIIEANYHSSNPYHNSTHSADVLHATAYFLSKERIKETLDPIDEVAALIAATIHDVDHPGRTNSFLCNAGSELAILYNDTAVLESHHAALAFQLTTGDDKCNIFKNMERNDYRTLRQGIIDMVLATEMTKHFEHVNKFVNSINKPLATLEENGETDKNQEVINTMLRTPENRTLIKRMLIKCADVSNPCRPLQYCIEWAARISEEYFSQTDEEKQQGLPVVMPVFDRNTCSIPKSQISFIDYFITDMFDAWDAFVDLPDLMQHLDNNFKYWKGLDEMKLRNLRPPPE", "test": "Inhibition of PDE8A1 (480 to 820 residues) (unknown origin) expressed in Escherichia coli BL21 using [3H]-cAMP as substrate measured for 15 mins by liquid scintillation counter method"}, "[15]": {"target": "High affinity cGMP-specific 3',5'-cyclic phosphodiesterase 9A (Homo sapiens, UniProt O76083)", "sequence (O76083 whole entry, the tested form may be a part)": "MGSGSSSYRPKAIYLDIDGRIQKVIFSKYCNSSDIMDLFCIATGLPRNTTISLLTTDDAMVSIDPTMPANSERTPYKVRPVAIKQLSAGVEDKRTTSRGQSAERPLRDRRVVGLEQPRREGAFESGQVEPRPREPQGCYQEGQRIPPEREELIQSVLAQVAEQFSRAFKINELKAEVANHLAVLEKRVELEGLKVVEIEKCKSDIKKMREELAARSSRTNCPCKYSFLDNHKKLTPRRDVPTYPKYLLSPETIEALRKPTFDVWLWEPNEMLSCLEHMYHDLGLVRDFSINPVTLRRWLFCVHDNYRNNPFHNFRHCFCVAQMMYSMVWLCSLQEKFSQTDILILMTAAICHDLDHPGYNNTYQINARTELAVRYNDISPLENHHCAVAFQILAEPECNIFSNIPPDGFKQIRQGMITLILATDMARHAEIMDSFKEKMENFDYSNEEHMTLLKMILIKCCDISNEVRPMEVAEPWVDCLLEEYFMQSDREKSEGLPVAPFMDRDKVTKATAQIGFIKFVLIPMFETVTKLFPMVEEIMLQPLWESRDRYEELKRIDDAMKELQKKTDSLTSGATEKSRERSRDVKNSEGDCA", "test": "Inhibition of PDE9A2 (181 to 506 residues) (unknown origin) expressed in Escherichia coli BL21 using [3H]-cGMP as substrate measured for 15 mins by liquid scintillation counter method"}, "[16]": {"target": "cAMP and cAMP-inhibited cGMP 3',5'-cyclic phosphodiesterase 10A (Homo sapiens, UniProt Q9Y233)", "test": "Inhibition of PDE10A (449 to 770 residues) (unknown origin) expressed in Escherichia coli BL21 using [3H]-cAMP as substrate measured for 15 mins by liquid scintillation counter method"}, "[17]": {"test": "Cmax in Sprague-Dawley rat at 5 mg/kg, iv", "type": "ADME, organism-based", "set-up": "dose 5 mg/kg, route iv", "conditions": "in vivo"}, "[18]": {"test": "AUC (0 to t) in Sprague-Dawley rat at 5 mg/kg, iv", "type": "ADME, organism-based", "set-up": "dose 5 mg/kg, route iv", "conditions": "in vivo"}, "[19]": {"test": "AUC (0 to infinity) in Sprague-Dawley rat at 5 mg/kg, iv", "type": "ADME, organism-based", "set-up": "time infinity, dose 5 mg/kg, route iv", "conditions": "in vivo"}, "[20]": {"test": "Clearance in Sprague-Dawley rat at 5 mg/kg, iv", "type": "ADME, organism-based", "conditions": "in vivo"}, "[21]": {"test": "MRT (0 to t) in Sprague-Dawley rat at 5 mg/kg, iv", "type": "ADME, organism-based", "conditions": "in vivo"}, "[22]": {"test": "Volume of distribution at steady state in Sprague-Dawley rat at 5 mg/kg, iv", "type": "ADME, organism-based", "conditions": "in vivo, read-out: Vdss"}, "Rattus norvegicus [23]": {"tested_on": "Rattus norvegicus", "test": "Antifibrotic activity in bleomycin-induced Sprague-Dawley rat pulmonary fibrosis model assessed as decrease in enhanced pause at 150 mg/kg, po administered daily for 28 days", "type": "functional, organism-based", "conditions": "time 28.0 day"}, "Rattus norvegicus [24]": {"tested_on": "Rattus norvegicus", "test": "Antifibrotic activity in bleomycin-induced Sprague-Dawley rat pulmonary fibrosis model assessed as decrease in relaxation time at 150 mg/kg, po administered daily for 28 days", "type": "functional, organism-based", "conditions": "time 28.0 day"}, "Rattus norvegicus [25]": {"tested_on": "Rattus norvegicus", "test": "Antifibrotic activity in bleomycin-induced Sprague-Dawley rat pulmonary fibrosis model assessed as decrease in end-expiratory pause at 150 mg/kg, po administered daily for 28 days", "type": "functional, organism-based", "conditions": "time 28.0 day"}, "Rattus norvegicus [26]": {"tested_on": "Rattus norvegicus", "test": "Antifibrotic activity in bleomycin-induced Sprague-Dawley rat pulmonary fibrosis model assessed as increase in respiratory rate at 150 mg/kg, po administered daily for 28 days", "type": "functional, organism-based", "conditions": "time 28.0 day"}},
  "note": "The source made the active and inactive calls. The rule behind the calls is not given here.",
  "data": [
    {"smiles": "CC1=C(C(=O)O[C@H](C)c2ccccc2)C(c2ccc3c(cnn3C)c2)C(C(=O)O[C@H](C)c2ccccc2)=C(C)N1", "values": [
      {"measurement": "Activity", "setting": "Rattus norvegicus [1]", "result": "Active"},
      {"measurement": "Activity", "setting": "Rattus norvegicus [2]", "result": "Active"},
      {"measurement": "half-life", "setting": "[3]", "result": 3.67, "unit": "h"},
      {"measurement": "Activity", "setting": "Rattus norvegicus [4]", "result": "Active"},
      {"measurement": "Activity", "setting": "Rattus norvegicus [5]", "result": "Active"},
      {"measurement": "IC50", "setting": "[6]", "result": 948, "unit": "nM"},
      {"measurement": "IC50", "setting": "[7]", "result": 145, "unit": "nM"},
      {"measurement": "IC50", "setting": "[8]", "result": 354, "unit": "nM"},
      {"measurement": "IC50", "setting": "[9]", "result": 5130, "unit": "nM"},
      {"measurement": "IC50", "setting": "[10]", "result": "> 10000", "unit": "nM"},
      {"measurement": "IC50", "setting": "[11]", "result": 619, "unit": "nM"},
      {"measurement": "IC50", "setting": "[12]", "result": 1810, "unit": "nM"},
      {"measurement": "IC50", "setting": "[13]", "result": 1400, "unit": "nM"},
      {"measurement": "IC50", "setting": "[14]", "result": "> 10000", "unit": "nM"},
      {"measurement": "IC50", "setting": "[15]", "result": "> 10000", "unit": "nM"},
      {"measurement": "IC50", "setting": "[16]", "result": 1310, "unit": "nM"},
      {"measurement": "Cmax", "setting": "[17]", "result": 2830, "unit": "ng/mL"},
      {"measurement": "AUC(0-t)", "setting": "[18]", "result": 4560, "unit": "ng·h/mL"},
      {"measurement": "AUC(0-inf)", "setting": "[19]", "result": 4590, "unit": "ng·h/mL"},
      {"measurement": "clearance", "setting": "[20]", "result": 18.4, "unit": "mL/min/kg"},
      {"measurement": "MRT last", "setting": "[21]", "result": 3.44, "unit": "h"},
      {"measurement": "Vd", "setting": "[22]", "result": 3.81, "unit": "L/kg"},
      {"measurement": "Activity", "setting": "Rattus norvegicus [23]", "result": "Active"},
      {"measurement": "Activity", "setting": "Rattus norvegicus [24]", "result": "Active"},
      {"measurement": "Activity", "setting": "Rattus norvegicus [25]", "result": "Active"},
      {"measurement": "Activity", "setting": "Rattus norvegicus [26]", "result": "Active"}
    ]}
  ]
}
